Test results published in patent publication US5591741A, “Fungicidal spiroheterocyclic derivatives” (American Cyanamid Company, priority 1993, dated 1997).

Columns and labels:
Pyricularia oryzae = type: in vivo; details: rice seedlings, direct therapeutic foliar spray, 600 ppm, 4-5 days
Alternaria solani = experiment: Activity against tomato early blight (AS); type: in vivo; details: Table VI; tomato seedlings, contact prophylactic foliar spray, 4 days
Outline: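 Foliar contact prophylactic spray on tomato seedlings (cv Outdoor Girl, second true leaf expanded) in acetone/water 50:50 with 0.04% Tween 20; 24 h at 20° C, 40% R.H., then inoculation with 10^4 spores/ml A. solani conidia. Kept moist at 21° C; lesion cover rated 4 days post-inoculation against untreated or diluent-sprayed controls.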

Botrytis cinerea = experiment: Direct protectant activity against broad bean grey mould (BCB); type: in vivo; details: direct protectant foliar spray, 600 ppm, 4 days
Outline: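 Broad bean plants (cv The Sutton, two leaf pairs) sprayed on upper leaf surfaces at 600 ppm, then inoculated 24 h later with 10^6 conidia/ml. Kept 4 days at 22 °C, high humidity; disease control rated from % leaf area with lesions against untreated or diluent controls.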

[1] = system: Erysiphe graminis f.sp. hordei; experiment: Activity against barley powdery mildew, direct therapeutic (EGT); type: in vivo; details: direct therapeutic foliar spray, 600 ppm, up to 7 days
Outline: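 Barley seedlings (cv. Golden Promise, single-leaf stage) were dusted with mildew conidia one day before a therapeutic foliar spray of 600 ppm compound. Plants were kept at 18 °C and 40% humidity for up to 7 days, and sporulating leaf area was rated against untreated or diluent-sprayed controls.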

Venturia inaequalis = experiment: Activity against apple scab in-vitro (VII); type: cell-based; details: 10 ppm, 10 days, 20° C., mycelial growth
Outline: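 Compound in acetone was tested at 10 ppm final in half-strength Potato Dextrose Broth inoculated with V. inaequalis mycelial fragments and spores at 5×10^4 propagules/ml. After 10 days at 20° C, mycelial growth was rated against untreated or diluent controls.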

Plasmopara viticola = experiment: Antisporulant activity against vine downy mildew (PVA); type: in vivo; details: vine leaves, antisporulant foliar spray, 600 ppm, 750 l/ha
Outline: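 Cabernet Sauvignon vines (~8 cm) inoculated on lower leaf surfaces with 5×10^4 zoosporangia/ml, held 24 h at 21° C high humidity then 24 h glasshouse. Infected leaves sprayed underside with 600 ppm compound in 1:1 water/acetone, 0.04% Tween 20, 750 l/ha; 96 h glasshouse, 24 h humidity. Sporulating leaf area rated versus control.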

[2] = system: Erysiphe graminis f.sp. hordei; experiment: Direct protectant activity against barley powdery mildew (EGP); type: in vivo; details: direct protectant foliar spray, 8 days
Outline: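 Barley seedlings (cv Golden Promise, single-leaf stage) were foliar-sprayed, held 24 h at 18 °C/40% RH, then dusted with mildew conidia. After 8 days at 18 °C/40% RH, sporulating leaf area was scored as a rating against untreated or diluent-sprayed controls.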

Phytophthora infestans = type: in vivo; details: tomato, direct protectant foliar spray
[3] = system: Pseudocercosporella herpotrichoides; experiment: Activity against wheat eyespot in-vitro (PHI); type: cell-based; details: 10 ppm, 10 days, 20° C., mycelial growth
Outline: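 P. herpotrichoides mycelial fragments (5×10^4/ml) grown in half-strength PDB with compound at 10 ppm final, added from acetone. Incubated 10 days at 20 °C; mycelial growth rated against untreated or diluent controls.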

Leptosphaeria nodorum = experiment: Activity against wheat leafspot (LN); type: in vivo; details: direct therapeutic foliar spray, 600 ppm, 6-8 days
Outline: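 Wheat cv Norman at single-leaf stage spray-inoculated with 1.5×10^6 conidia/ml, held 24 h at high humidity, then sprayed therapeutically with test compound at 600 ppm. Kept 6-8 days at 22° C, 70% humidity; lesion density per leaf rated against untreated or diluent-sprayed controls.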

Rhizoctonia solani = experiment: Activity against Rhizoctonia in-vitro (RSI); type: cell-based; details: 10 ppm, 10 days, 20° C., mycelial growth
Outline: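 R. solani mycelial fragments (5×10^4/ml) in half-strength Potato Dextrose Broth with compound added from acetone to 10 ppm final. Mycelial growth assessed after 10 days at 20° C, rated against untreated or diluent control.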

SMILES	disease control rating PO (Pyricularia oryzae)	disease control rating AS (Alternaria solani)	disease control rating BCB (Botrytis cinerea)	disease control rating EGT [1]	disease control rating VII (Venturia inaequalis)	disease control rating PVA (Plasmopara viticola)	disease control rating EGP [2]	disease control rating PIP (Phytophthora infestans)	disease control rating PHI [3]	disease control rating LN (Leptosphaeria nodorum)	disease control rating RSI (Rhizoctonia solani)
C1CCN(C2COC3(CCCCC3)C2)CC1 (centres unmarked) [Compound 35]	0 (less than 50% disease control)	0 (less than 50% disease control)	0 (less than 50% disease control)	0 (less than 50% disease control)	0 (less than 50% disease control)	0 (less than 50% disease control)	0 (less than 50% disease control)	0 (less than 50% disease control)	0 (less than 50% disease control)	0 (less than 50% disease control)	0 (less than 50% disease control)
CCCCCCCCNC1COC2(CCC(C(C)(C)C)CC2)C1 (centres unmarked) [Compound 7]	0 (less than 50% disease control)	0 (less than 50% disease control)	1 (about 50-80% disease control)	2 (greater than 80% disease control)	2 (greater than 80% disease control)	0 (less than 50% disease control)	2 (greater than 80% disease control)	0 (less than 50% disease control)	2 (greater than 80% disease control)	0 (less than 50% disease control)	2 (greater than 80% disease control)
C=CCN(C1CCCCC1)C1COC2(CCC(C(C)(C)C)CC2)C1 (centres unmarked) [Compound 79]	0 (less than 50% disease control)	0 (less than 50% disease control)	1 (about 50-80% disease control)	2 (greater than 80% disease control)	0 (less than 50% disease control)	0 (less than 50% disease control)	2 (greater than 80% disease control)	2 (greater than 80% disease control)	0 (less than 50% disease control)	0 (less than 50% disease control)	0 (less than 50% disease control)
CC(C)(C)C1CCC2(CC1)CC(NCCC1=CCCCC1)CO2 (centres unmarked) [Compound 108]	0 (less than 50% disease control)	0 (less than 50% disease control)	2 (greater than 80% disease control)	2 (greater than 80% disease control)	1 (about 50-80% disease control)	0 (less than 50% disease control)	2 (greater than 80% disease control)	2 (greater than 80% disease control)	1 (about 50-80% disease control)	0 (less than 50% disease control)	1 (about 50-80% disease control)
CC(C)(C)C1CCC2(CC1)CC(N1CCCC3CCCCC31)CO2 (centres unmarked) [Compound 116]	0 (less than 50% disease control)	0 (less than 50% disease control)	1 (about 50-80% disease control)	2 (greater than 80% disease control)	2 (greater than 80% disease control)	0 (less than 50% disease control)	2 (greater than 80% disease control)	0 (less than 50% disease control)	0 (less than 50% disease control)	0 (less than 50% disease control)	0 (less than 50% disease control)
CCCCCCN(CCCCCC)C1COC2(CCC(C(C)(C)C)CC2)C1 (centres unmarked) [Compound 69]	1 (about 50-80% disease control)	0 (less than 50% disease control)	0 (less than 50% disease control)	2 (greater than 80% disease control)	2 (greater than 80% disease control)	0 (less than 50% disease control)	2 (greater than 80% disease control)	0 (less than 50% disease control)	0 (less than 50% disease control)	0 (less than 50% disease control)	0 (less than 50% disease control)
CCCN(CC1CCCCC1)C1COC2(CCC(C(C)(C)C)CC2)C1 (centres unmarked) [Compound 93]	0 (less than 50% disease control)	0 (less than 50% disease control)	0 (less than 50% disease control)	2 (greater than 80% disease control)	0 (less than 50% disease control)	0 (less than 50% disease control)	2 (greater than 80% disease control)	2 (greater than 80% disease control)	0 (less than 50% disease control)	0 (less than 50% disease control)	1 (about 50-80% disease control)
CCCCCCCCCCCCCCNC1COC2(CCC(C(C)(C)C)CC2)C1 (centres unmarked) [Compound 44]	0 (less than 50% disease control)	0 (less than 50% disease control)	0 (less than 50% disease control)	2 (greater than 80% disease control)	0 (less than 50% disease control)	0 (less than 50% disease control)	2 (greater than 80% disease control)	0 (less than 50% disease control)	0 (less than 50% disease control)	0 (less than 50% disease control)	0 (less than 50% disease control)
CC1CCCCN1C1COC2(CCC(C(C)(C)C)CC2)C1 (centres unmarked) [Compound 17]	0 (less than 50% disease control)	0 (less than 50% disease control)	0 (less than 50% disease control)	2 (greater than 80% disease control)	0 (less than 50% disease control)	0 (less than 50% disease control)	2 (greater than 80% disease control)	0 (less than 50% disease control)	0 (less than 50% disease control)	0 (less than 50% disease control)	0 (less than 50% disease control)
CCCCCCCCCCCCCCCCCCNC1COC2(CCC(C(C)(C)C)CC2)C1 (centres unmarked) [Compound 46]	0 (less than 50% disease control)	0 (less than 50% disease control)	0 (less than 50% disease control)	2 (greater than 80% disease control)	0 (less than 50% disease control)	0 (less than 50% disease control)	2 (greater than 80% disease control)	0 (less than 50% disease control)	0 (less than 50% disease control)	0 (less than 50% disease control)	0 (less than 50% disease control)
